Reference: patent publication US20240081328A1, “Use of 4-Nitro-3-(Trifluoromethyl)Phenol in Killing or Controlling Pomacea Canaliculata, Method for Killing or Controlling Pomacea Canaliculata, and Molluscicide” (priority 2021, published 2024)
Like-named read-outs stand apart in the source and are kept apart here.

Test system: Pomacea canaliculata
Assay: Immersion test of dilutions in beakers, mortality rate of Pomacea canaliculata
Assay type: in vivo
Details: for mortality at 0.0039 µg/mL / mortality at 0.0078 µg/mL / mortality at 0.0156 µg/mL / mortality at 0.0312 µg/mL / mortality at 0.0625 µg/mL / mortality at 0.125 µg/mL / mortality at 0.25 µg/mL / mortality at 0.5 µg/mL: Pomacea canaliculata, read-out: Mortality rate (%) of Pomacea canaliculata at different action time (h); for mortality at 0.0039 µg/mL: 0.0039 mg/L; for mortality at 0.0078 µg/mL: 0.0078 mg/L; for mortality at 0.0156 µg/mL: 0.0156 mg/L; for mortality at 0.0312 µg/mL: 0.0312 mg/L; for mortality at 0.0625 µg/mL: 0.0625 mg/L
Description: 0.5 mg of 4-nitro-3-(trifluoromethyl)phenol and 0.5 mg of niclosamide were completely dissolved in 1 mL of a dimethyl sulfoxide (DMSO) solution separately, and diluted to 1,000 mL with deaminized water to obtain a 4-nitro-3-(trifluoromethyl)phenol solution with a concentration of 0.5 mg/L and a niclosamide solution with a concentration of 0.5 mg/L.
The two solutions were separately diluted into 7 concentrations of dilutions using a doubling dilution method, including 0.25 mg/L, 0.125 mg/L, 0.0625 mg/L, 0.0312 mg/L, 0.0156 mg/L, and 0.0078 mg/L, and 0.0039 mg/L.
400 mL of the dilutions with different concentrations were separately poured into a 500 mL beaker, 10 Pomacea canaliculata samples were put into the dilution of each concentration, and each bottle mouth was sealed with wire mesh to completely immerse the Pomacea canaliculata in the dilution; clear water was used as a control group.
The experimental data were used to calculate the mortality rate of each treatment according to the following formula. Each calculation result was rounded to two decimal places. A formula for calculating the mortality rate was: […]
In the formula: P represented the mortality rate, in percentage (%); Σ^Ki represented • the number of dead Pomacea canaliculata, in snails; Σ^Ni represented the total number of treated Pomacea canaliculata, in snails.

SMILES: O=C(Nc1ccc([N+](=O)[O-])cc1Cl)c1cc(Cl)ccc1O [niclosamide]
- killing of Pomacea canaliculata (in words) (0.125 mg/L, within 24 h): all Pomacea canaliculata died
- killing of Pomacea canaliculata (in words) (0.25 mg/L, action time 12 h): all Pomacea canaliculata died
- killing of Pomacea canaliculata (in words) (0.5 mg/L, action time 12 h): all Pomacea canaliculata died
- mortality at 0.0039 µg/mL (action time 0 h): 0%
- mortality at 0.0039 µg/mL (action time 12 h): 0%
- mortality at 0.0039 µg/mL (action time 24 h): 20%
- mortality at 0.0039 µg/mL (action time 36 h): 30%
- mortality at 0.0039 µg/mL (action time 48 h): 30%
- mortality at 0.0039 µg/mL (action time 60 h): 30%
- mortality at 0.0039 µg/mL (action time 72 h): 40%
- mortality at 0.0078 µg/mL (action time 0 h): 0%
- mortality at 0.0078 µg/mL (action time 12 h): 10%
- mortality at 0.0078 µg/mL (action time 24 h): 40%
- mortality at 0.0078 µg/mL (action time 36 h): 40%
- mortality at 0.0078 µg/mL (action time 48 h): 40%
- mortality at 0.0078 µg/mL (action time 60 h): 40%
- mortality at 0.0078 µg/mL (action time 72 h): 70%
- mortality at 0.0156 µg/mL (action time 0 h): 0%
- mortality at 0.0156 µg/mL (action time 12 h): 10%
- mortality at 0.0156 µg/mL (action time 24 h): 30%
- mortality at 0.0156 µg/mL (action time 36 h): 60%
- mortality at 0.0156 µg/mL (action time 48 h): 70%
- mortality at 0.0156 µg/mL (action time 60 h): 70%
- mortality at 0.0156 µg/mL (action time 72 h): 70%
- mortality at 0.0312 µg/mL (action time 0 h): 0%
- mortality at 0.0312 µg/mL (action time 12 h): 10%
- mortality at 0.0312 µg/mL (action time 24 h): 50%
- mortality at 0.0312 µg/mL (action time 36 h): 70%
- mortality at 0.0312 µg/mL (action time 48 h): 80%
- mortality at 0.0312 µg/mL (action time 60 h): 80%
- mortality at 0.0312 µg/mL (action time 72 h): 80%
- mortality at 0.0625 µg/mL (action time 0 h): 0%
- mortality at 0.0625 µg/mL (action time 12 h): 30%
- mortality at 0.0625 µg/mL (action time 24 h): 50%
- mortality at 0.0625 µg/mL (action time 36 h): 80%
- mortality at 0.0625 µg/mL (action time 48 h): 80%
- mortality at 0.0625 µg/mL (action time 60 h): 100%
- mortality at 0.0625 µg/mL (action time 72 h): 100%
- mortality at 0.125 µg/mL (0.125 mg/L, action time 0 h): 0%
- mortality at 0.125 µg/mL (0.125 mg/L, action time 12 h): 90%
- mortality at 0.125 µg/mL (0.125 mg/L, action time 24 h): 100%
- mortality at 0.125 µg/mL (0.125 mg/L, action time 36 h): 100%
- mortality at 0.125 µg/mL (0.125 mg/L, action time 48 h): 100%
- mortality at 0.125 µg/mL (0.125 mg/L, action time 60 h): 100%
- mortality at 0.125 µg/mL (0.125 mg/L, action time 72 h): 100%
- mortality at 0.25 µg/mL (0.25 mg/L, action time 0 h): 0%
- mortality at 0.25 µg/mL (0.25 mg/L, action time 12 h): 100%
- mortality at 0.25 µg/mL (0.25 mg/L, action time 24 h): 100%
- mortality at 0.25 µg/mL (0.25 mg/L, action time 36 h): 100%
- mortality at 0.25 µg/mL (0.25 mg/L, action time 48 h): 100%
- mortality at 0.25 µg/mL (0.25 mg/L, action time 60 h): 100%
- mortality at 0.25 µg/mL (0.25 mg/L, action time 72 h): 100%
- mortality at 0.5 µg/mL (0.5 mg/L, action time 0 h): 0%
- mortality at 0.5 µg/mL (0.5 mg/L, action time 12 h): 100%
- mortality at 0.5 µg/mL (0.5 mg/L, action time 24 h): 100%
- mortality at 0.5 µg/mL (0.5 mg/L, action time 36 h): 100%
- mortality at 0.5 µg/mL (0.5 mg/L, action time 48 h): 100%
- mortality at 0.5 µg/mL (0.5 mg/L, action time 60 h): 100%
- mortality at 0.5 µg/mL (0.5 mg/L, action time 72 h): 100%
- mortality rate of Pomacea canaliculata within 72 h (concentration of below 0.0312 mg/L, within 72 h): < 100%
